Measurements: patent US12422427B2, “Compounds for treatment of diseases and methods of screening therefor” (Max-Planck-Gesellschaft zur Förderung der Wissenschaften …, priority 2018, dated 2025)

Key:
[1] = biological target: T1, FUS GFP (Homo sapiens, UniProt P35637); assay: In vitro purified FUS GFP droplet screen; assay type: biochemical; conditions: low salt conditions, 1 mM DTT, up to 100 μM compound
T1 construct: His MBP (N, cleaved yes); made in house; host or cells: baculovirus/insect cell expression system
T1 sequence (P35637 1-526): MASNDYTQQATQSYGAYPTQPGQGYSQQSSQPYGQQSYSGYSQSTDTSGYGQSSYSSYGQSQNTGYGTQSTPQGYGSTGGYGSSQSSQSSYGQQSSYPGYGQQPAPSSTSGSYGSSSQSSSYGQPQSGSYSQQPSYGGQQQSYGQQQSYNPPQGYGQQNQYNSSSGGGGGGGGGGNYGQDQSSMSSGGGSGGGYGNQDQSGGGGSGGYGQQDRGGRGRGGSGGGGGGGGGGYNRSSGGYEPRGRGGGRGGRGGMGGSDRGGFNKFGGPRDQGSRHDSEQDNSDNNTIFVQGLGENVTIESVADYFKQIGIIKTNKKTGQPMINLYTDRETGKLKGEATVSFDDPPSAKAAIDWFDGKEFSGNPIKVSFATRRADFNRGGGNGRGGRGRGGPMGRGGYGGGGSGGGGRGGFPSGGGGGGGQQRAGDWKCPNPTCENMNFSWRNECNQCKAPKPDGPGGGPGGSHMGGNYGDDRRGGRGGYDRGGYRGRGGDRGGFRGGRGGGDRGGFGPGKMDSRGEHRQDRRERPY
Method: Compounds that can directly interact with FUS were of primary interest, therefore the inventors performed a follow up screen for action of compounds on FUS droplet formation in vitro (FIG. 1D). […] Hits were identified by the effect on number of FUS droplets formed and the partition of FUS into the droplets formed under low salt conditions in vitro in the presence of 1 mM DTT to mimic the reducing intracellular environment (FIG. 1E).
The effect of compounds on FUS GFP droplets in vitro was assessed in 384 well plate format. The compound volume (in DMSO) necessary for 1, 3, 10, 30 or 100 μM final concentration were added by acoustic dispensing (Labcyte Echo 550) to 96 well plate wells containing 3 μl FUS GFP diluted in 50 mM Tris. HCl pH 7.4, 1 mM DTT (for low salt assays). Final DMSO concentration was 0.01 to 1%. Using a Freedom Evo 200 liquid handling workstation (TECAN) the FUS GFP/compound mixture was diluted in 7 μl assay buffer containing 50 mM Tris. HCl pH 7.4, 1 mM DTT, 50 mM KCl and 0.7 μM FUS GFP. Compound/FUS GFP and assay buffer were mixed by a standardised pipetting procedure then split to four wells in clear bottom 384 well plates then immediately imaged using a CellVoyager CV7000 automated spinning disc confocal microscope (as above). […] Droplet number and FUS GFP partition into droplets were analysed with a fixed intensity threshold using ImageJ.

[2] = tested on: HeLa cells expressing FUS GFP; assay: HeLa cell compound dose responses (FUS GFP, arsenate stress); assay type: cell-based; conditions: 1 h pre-treatment, 1 h arsenate stress
Method: Small dilution steps rather than concentration replicates were selected as it provides greater statistical power from a set number of samples. Final DMSO concentration was 0.08% in all samples, and each plate included at least 12 control wells with 0.08% DMSO. Cytoplasmic FUS droplet number and nuclear/cytoplasm partition of FUS were analysed using custom macros in ImageJ. Nuclei were identified by intensity thresholding of the blue fluorescence image following a 5 px Gaussian blur. Cytoplasmic FUS droplets by intensity thresholding of the green image following a 10 px weight 0.9 unsharp filter masked by the thresholded nuclei, and nuclear FUS droplets by intensity thresholding of the green image following a 5 px weight 0.9 unsharp filter and 10 px rolling ball background subtraction masked to only include thresholded nuclei. The ratio of cytoplasmic FUS drops to nuclei was taken as cytoplasmic FUS droplets per cell per field of view, and p, the ratio of partition of FUS to the nucleus and the cytoplasm, was derived from a=Vn/vt, the ratio of nuclear to total green signal per field of view, where p=a/(1−a). […] Six fields of view were captured and analysed per condition.

[3] = tested on: P bodies, Cajal bodies, PML bodies, DNA damage foci, nucleolus; assay: Effect on other non-membrane bound compartments in HeLa GFP marker lines; assay type: cell-based
Method: FIG. 4A) Images of HeLa cells expressing Protein GFP markers of other non-membrane bound compartments subject to 1 h treatment with 10 μM compound (or DMSO control). Where unclear, the position of nuclei is indicated with a dotted outline. […] FIG. 4B) Recruitment of FUS GFP to sites of UV laser-induced DNA damage in iPS cells after 1 h treatment with compound followed by 1 h arsenate stress.
Stress granules are one of several, similar, cytoplasmic RNA-containing liquid-like compartments. […] Several stress granule proteins also form nuclear bodies: nuclear paraspeckles, and foci at the sites of DNA damage. There are also many other nuclear liquid-like compartments. It was then asked whether lipoamide also affected these other bodies, using a panel of cell lines expressing GFP fusions. For this analysis, mitoxantrone was included as a representative of the heterotri-/tetracyclic compound class of hits (FIG. 1F). An overly-broad effect on liquid-like compartments would likely cause side-effects for a therapeutic.
The action of lipoamide is therefore specific to the signaling and/or physical chemistry driving stress granule formation, stress granule phase separation, and/or a specific signaling route. Stress granules normally form and dissolve rapidly in comparison to many other compartments.

[4] = tested on: FUS GFP; assay: Ex vivo DNA cut assay: FUS GFP recruitment to UV laser-induced DNA damage; assay type: cell-based, human
Text: FUS is recruited to sites of DNA damage, and a potential mechanism contributing to ALS pathogenesis is reduced DNA damage response due to sequestration of FUS in the cytoplasm in stress granules. Strong association of FUS nuclear localization (NLS) mutations (e.g., P525L) with familial ALS mutations supports this hypothesis. The inventors therefore tested whether lipoamide affect FUS recruitment to sites of DNA damage induced by focused UV laser irradiation site, using arsenate-stressed iPSCs expressing FUS GFP (FIG. 4B). […] The action of lipoamide is therefore specific to cytoplasmic FUS liquid-like compartments, a therapeutically useful feature.
UV micro-irradiation of live cells was performed to induce DNA damage. KOLF iPS MNs expressing […] were […]. A single point in the nucleus was subject to 3 UV pulses as described for FRAP, but at 10% laser power. GFP fluorescence was imaged at 1 Hz, and intensity of response was analysed in ImageJ.

[5] = biological target: T2, FUS low complexity domain (residues 1 to 163) (Homo sapiens, UniProt P35637); assay: 1H-15N HSQC NMR of FUS low complexity domain with compound; assay type: binding; conditions: 500 μM compound
T2 construct: untagged FUS low complexity domain (residues 1 to 163) expressed, purified and analysed; made in house
T2 sequence (P35637 1-163): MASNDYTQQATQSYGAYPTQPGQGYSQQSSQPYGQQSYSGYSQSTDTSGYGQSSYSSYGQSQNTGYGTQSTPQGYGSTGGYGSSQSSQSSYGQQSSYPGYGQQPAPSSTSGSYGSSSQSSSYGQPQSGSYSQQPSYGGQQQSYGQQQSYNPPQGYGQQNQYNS
Method: Finally, mechanistic detail was analyzed at the sub-molecular level by using NMR of the FUS prion-like N-terminal LCD to determine putative sites of lipoamide interaction. The LCD is able to phase separate to form condensates in vitro and the individual residues can be resolved and assigned in a ^1H-^15N heteronuclear single quantum coherence spectrum. ^1H-^15N analyses reveal a change in environment of individual residues as indicated by their corresponding chemical shifts. The magnitude of chemical shift changes were compared with and without both lipoamide or mitoxantrone. […] This leaves several possibilities: Perhaps lipoamide interacts with the FUS LCD only when phase separated, potentially reducing viscosity, or interacts with the condensate phase boundary, perhaps increasing surface tension. Such interactions may reduce formation or expansion of aggregated forms of FUS involved in condensate hardening and reduced liquidity.
For analysis of compound interaction with FUS untagged FUS low complexity domain (residues 1 to 163) expressed, purified and analysed using ^1H-^15N heteronuclear single quantum coherence NMR and sample conditions previously described^14 in the presence of 500 μM compound or equivalent DMSO solvent control (1%).

O=C1c2c(O)ccc(O)c2C(=O)c2c(NCCNCCO)ccc(NCCNCCO)c21 [mitoxantrone, reference compound]
FUS GFP droplet number, partition into droplets and droplet size [1]: fewer smaller drops
nuclear/cytoplasm FUS partition, dose response [2]: decreased nuclear/cytoplasm FUS partition
stress granule number, dose response [2]: reducing stress granule number
disruption of P bodies (DCP1A), Cajal bodies (COIL), DNA damage foci (TRP53BP1), nucleolus (NCB1) ([3]; 1 h treatment with 10 μM compound): non-stress granule specific effects
localization of P-body, PML body and DNA damage focus proteins ([3]; conditions that would dissolve stress granules): affected all of these compartments to some extent
FUS GFP recruitment to sites of DNA damage ([4]; concentrations not sufficient to dissolve cytoplasmic FUS droplets): blocked recruitment of FUS GFP to sites of DNA damage
formation of nuclear FUS droplets at the sites of DNA damage (FIG. 4B legend) ([4]; iPS cells, arsenate stress): prevents formation of nuclear FUS droplets
chemical shift changes of FUS LCD residues [5]: weak shifts across the LCD
